Reference: paper PMC3827244, “An Ultrasensitive High Throughput Screen for DNA Methyltransferase 1-Targeted Molecular Probes” (PLoS ONE, 2013)

How the values were obtained:
[1] = biological target: T1, M.SssI DNMT (Spiroplasma monobiae, UniProt P15840); assay: Compound selectivity, endonuclease-coupled DNA methylation assay; format: biochemical, bacterial; details: 1.25 h; 20 µM inhibitor, 20 nM methyltransferase, 0.25 mM SAM; read-out: Percent activity, M.SssI DNMT
T1 construct: purchased New England Biolabs
Procedure: After identifying direct inhibitors of DNMT1 lacking the RFTS domain, inhibitor selectivity was assessed by examining inhibition of RFTS-containing DNMT1 (amino acids 351–1616), CD-DNMT3A/DNMT3L complex, and the bacterial cytosine methyltransferase from M. SssI (New England Biolabs) using the endonuclease-coupled DNA methylation assay. Triplicate assays (100 µl) containing 0.25 mM SAM, 0.2 µM oligonucleotide 8006, 0.8 U GlaI, 20 nM methyltransferase, 20 µM inhibitor and 1% DMSO were conducted in 96 well plates. Following enzyme addition, assay plates were incubated at 37°C for 75 min and fluorescence was measured in a BioTek Neo plate reader. A control containing only GlaI was subtracted from each assay. […] Percent activity was determined by comparing product formation to a DMSO containing control assay.

[2] = biological target: T2, CD-DNMT3A/DNMT3L complex (Homo sapiens, UniProt Q9Y6K1); assay: as above; format: biochemical; details: 20 µM inhibitor, 20 nM methyltransferase, 0.25 mM SAM
T2 construct: CD-DNMT3A; amino acids 611–912; His tag (N); made in house; host or cells: Rosetta 2(DE3)pLysS (E. coli) for CD-DNMT3A
Procedure: (§1) Triplicate assays (100 µl) containing 0.25 mM SAM, 0.2 µM oligonucleotide 8006, 0.8 U GlaI, 20 nM methyltransferase, 20 µM inhibitor and 1% DMSO were conducted in 96 well plates. Following enzyme addition, assay plates were incubated at 37°C for 75 min and fluorescence was measured in a BioTek Neo plate reader. A control containing only GlaI was subtracted from each assay. […] Percent activity was determined by comparing product formation to a DMSO containing control assay.

[3] = biological target: T3, RFTS-containing DNMT1 (amino acids 351–1616) (Homo sapiens, UniProt P26358); assay: as above; format: biochemical; details: 20 µM inhibitor, 20 nM methyltransferase, 0.25 mM SAM
T3 construct: RFTS-containing DNMT1, amino acids 351–1616; made in house
Procedure: as §1

[4] = system: calf thymus DNA; assay: DNA intercalation assay (ethidium bromide displacement); format: binding; details: 10 µM compound
Procedure: DNA intercalation was assessed by examining the ability of the compounds to displace ethidium bromide from calf thymus DNA (ctDNA; Sigma). Duplicate assays (100 µl) were conducted in black 96 well plates and contained 15 µg/ml ctDNA, 1.5 µM ethidium bromide and 10 µM compound in methylation assay buffer. DMSO was used as a negative control and daunorubicin (Sigma) was used as a positive control. Fluorescence was measured using excitation and emission wavelengths of 320 nm and 600 nm, respectively.

T2 sequence (Q9Y6K1 611-912): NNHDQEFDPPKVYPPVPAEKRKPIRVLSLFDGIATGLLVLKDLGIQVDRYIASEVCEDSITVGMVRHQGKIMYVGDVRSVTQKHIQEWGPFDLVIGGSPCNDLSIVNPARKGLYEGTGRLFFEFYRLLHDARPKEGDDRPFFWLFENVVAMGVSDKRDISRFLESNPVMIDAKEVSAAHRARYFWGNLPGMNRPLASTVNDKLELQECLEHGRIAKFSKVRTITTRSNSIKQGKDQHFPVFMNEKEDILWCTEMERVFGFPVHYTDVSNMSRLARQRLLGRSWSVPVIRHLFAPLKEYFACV
T2 sequence (Q9UJW3 whole entry partner, the tested form may be a part): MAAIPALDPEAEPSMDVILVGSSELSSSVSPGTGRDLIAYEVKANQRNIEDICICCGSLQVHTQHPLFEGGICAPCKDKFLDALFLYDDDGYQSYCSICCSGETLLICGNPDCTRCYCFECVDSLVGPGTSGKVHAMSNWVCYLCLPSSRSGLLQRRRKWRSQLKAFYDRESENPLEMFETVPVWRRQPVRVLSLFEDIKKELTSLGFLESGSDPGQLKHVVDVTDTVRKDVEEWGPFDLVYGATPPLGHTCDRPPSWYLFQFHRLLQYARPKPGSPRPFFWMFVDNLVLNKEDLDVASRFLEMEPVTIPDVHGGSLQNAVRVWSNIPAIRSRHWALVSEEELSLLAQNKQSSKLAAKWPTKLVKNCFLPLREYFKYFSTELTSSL
T1 sequence (P15840 whole entry): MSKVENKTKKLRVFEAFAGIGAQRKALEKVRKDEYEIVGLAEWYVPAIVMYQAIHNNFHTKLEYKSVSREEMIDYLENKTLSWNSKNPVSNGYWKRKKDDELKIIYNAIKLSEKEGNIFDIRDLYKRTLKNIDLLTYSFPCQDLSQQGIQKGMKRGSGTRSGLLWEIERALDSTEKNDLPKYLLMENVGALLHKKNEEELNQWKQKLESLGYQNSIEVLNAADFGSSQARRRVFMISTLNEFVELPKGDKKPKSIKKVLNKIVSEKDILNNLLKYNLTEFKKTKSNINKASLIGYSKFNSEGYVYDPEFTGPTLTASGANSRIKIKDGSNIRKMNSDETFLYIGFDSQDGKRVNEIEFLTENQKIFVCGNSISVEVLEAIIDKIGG
T3 sequence (P26358 351-1616): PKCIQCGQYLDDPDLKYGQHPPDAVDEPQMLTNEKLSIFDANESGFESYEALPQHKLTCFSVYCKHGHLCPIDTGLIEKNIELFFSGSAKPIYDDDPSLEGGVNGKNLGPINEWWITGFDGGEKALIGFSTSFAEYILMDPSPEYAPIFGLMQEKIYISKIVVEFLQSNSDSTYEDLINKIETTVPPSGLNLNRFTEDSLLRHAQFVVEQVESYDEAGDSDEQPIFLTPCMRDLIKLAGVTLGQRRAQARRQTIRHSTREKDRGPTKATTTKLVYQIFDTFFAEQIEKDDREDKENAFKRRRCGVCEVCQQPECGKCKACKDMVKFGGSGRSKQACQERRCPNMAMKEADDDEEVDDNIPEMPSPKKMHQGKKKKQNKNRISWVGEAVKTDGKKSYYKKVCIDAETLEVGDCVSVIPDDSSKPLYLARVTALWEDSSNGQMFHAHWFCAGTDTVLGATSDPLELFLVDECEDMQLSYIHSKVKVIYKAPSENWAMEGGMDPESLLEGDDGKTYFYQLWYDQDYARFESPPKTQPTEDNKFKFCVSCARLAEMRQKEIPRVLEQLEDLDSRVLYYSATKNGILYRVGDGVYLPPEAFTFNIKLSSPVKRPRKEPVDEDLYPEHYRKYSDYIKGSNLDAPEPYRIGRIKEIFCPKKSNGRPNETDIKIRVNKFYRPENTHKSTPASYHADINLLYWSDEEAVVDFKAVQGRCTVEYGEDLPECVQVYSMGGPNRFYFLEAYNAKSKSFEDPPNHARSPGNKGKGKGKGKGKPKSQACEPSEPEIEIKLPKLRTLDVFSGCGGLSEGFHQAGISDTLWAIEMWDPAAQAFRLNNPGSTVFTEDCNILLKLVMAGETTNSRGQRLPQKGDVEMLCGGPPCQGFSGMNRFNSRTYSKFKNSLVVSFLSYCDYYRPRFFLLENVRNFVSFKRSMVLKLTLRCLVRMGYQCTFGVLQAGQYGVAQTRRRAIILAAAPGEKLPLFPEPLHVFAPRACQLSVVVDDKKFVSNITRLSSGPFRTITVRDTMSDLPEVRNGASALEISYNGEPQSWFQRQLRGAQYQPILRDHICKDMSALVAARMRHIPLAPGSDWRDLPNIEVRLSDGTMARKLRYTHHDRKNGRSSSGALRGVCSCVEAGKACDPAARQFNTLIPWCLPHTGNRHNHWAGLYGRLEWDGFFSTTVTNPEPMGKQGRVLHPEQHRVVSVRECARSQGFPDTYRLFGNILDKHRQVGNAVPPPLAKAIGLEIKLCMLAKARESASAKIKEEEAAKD

SMILES | remaining activity at 20 µM [1] | Percent activity, DNMT3A/DNMT3L Complex [2] | Percent activity, RFTS-containing Dnmt1 [3] | DNA intercalation (in words) [4] | RFU (ethidium bromide fluorescence) ([4]; 15 µg/ml ctDNA, 1.5 µM ethidium bromide, DMSO 2370 ± 190)
Nc1ncn([C@@H]2O[C@H](CO)[C@@H](O)[C@H]2O)c(=O)n1 [5-aza-cytidine, reference compound] | 100 ± 5% | 97±10% | 100±11% |  | 
COc1cccc2c1C(=O)c1c(O)c3c(c(O)c1C2=O)C[C@@](O)(C(C)=O)C[C@@H]3O[C@H]1C[C@H](N)[C@H](O)[C@H](C)O1 [Daunorubicin, daunorubicin, reference compound] |  |  |  | significantly reduced fluorescence | 605 ± 33 RFU
